These results are taken from PubChem BioAssay (NCI).

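96-well plates; 48 h exposure; 5 concentrations. Endpoints by linear interpolation between flanking doses. Not reached: highest tested concentration assigned. GI50: concentration for 50% inhibition of growth. TGI: concentration producing complete growth inhibition.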

Holding throughout (assay): NCI tumour cell line growth inhibition, 48 h
The subject of assay [1] is 786-0 renal.
Assay [2] has as its system CCRF-CEM leukemia.
Assay [3] relates to NCI-H226 lung.
Assay [4] concerns NCI-H23 lung.
Assay [5] concerns NCI/ADR-RES ovarian.
For assay [6], the system named is PC-3 prostate.
For assay [7], the system named is RXF 393 renal.
For assay [8], the system named is SK-MEL-5 melanoma.
Assay [9] deals with T-47D breast.
The subject of assay [10] is UACC-257 melanoma.

`FC(F)(F)c1cc(NC2=NCCN=C(Nc3cc(C(F)(F)F)cc(C(F)(F)F)c3)SS2)cc(C(F)(F)F)c1`: the GI50 is 5.26 µM in assay [1]; 4.28 µM in assay [2]; 3.07 µM in assay [3]; 4.75 µM in [4]; 5.23 µM in assay [5]; 3 µM in assay [6]. In addition, the GI50 in assay [7] is 2.66 µM; in [8], 3.2 µM; in [9], 4.22 µM. Further, the TGI in assay [1] is 17.7 µM; in [2] it was 27 µM; in assay [3], 16.2 µM; in assay [4], 17.4 µM; in [5] it was 21.5 µM; in [6] it was 12.1 µM. In addition, the TGI in [7] turned out to be 11.2 µM; in assay [8], 11.9 µM; in assay [9], 23.7 µM.
Regarding `N#Cc1ccc2c(c1)C(=O)c1c-2n(CCCN=[N+]=[N-])c(=O)c2cc([N+](=O)[O-])ccc12`, the GI50 in assay [1] was 23 µM; in assay [2], 1.82 µM; in assay [3] it was 40 µM; in assay [4], 49.5 µM; in [5] it was over 50 µM; in [6], over 50 µM. Besides, the GI50 was over 50 µM in assay [7], over 50 µM in [8], 8.63 µM in assay [9] and over 50 µM in [10]. For the same compound, the TGI in [1], in [2], in assay [3], in assay [4], in assay [5] and in assay [6] was over 50 µM throughout. The TGI in assay [7], in [8], in assay [9] and in assay [10] was over 50 µM throughout.
Turning to `CC[C@H](C)[C@H](NC(=O)c1nccn1C)C(=O)N(C)[C@H](C[C@@H](OC(C)=O)c1nc(C(=O)N[C@@H](Cc2ccccc2)C[C@H](C)C(=O)OC)cs1)C(C)C`, the GI50 is 1.17 µM in assay [1]; 1.04 µM in [2]; 8.51 µM in assay [3]; 1.36 µM in [4]; 3.18 µM in assay [5]; 1.11 µM in [6]. The GI50 is 0.668 µM in [8] and over 33.3 µM in assay [9]. The TGI was 14.5 µM in assay [1]; over 33.3 µM in assay [2]; over 33.3 µM in assay [3]; over 33.3 µM in assay [4]; over 33.3 µM in assay [5]; over 33.3 µM in [6]. The TGI is 3.67 µM in assay [8] and over 33.3 µM in assay [9].
In the case of `O=C(/C=C/c1ccccc1)CCc1c(O)c2ccccc2oc1=O`, the TGI in assay [1], in assay [2], in assay [3], in [4], in assay [5] and in assay [6] was over 100 µM throughout. For the same compound, the TGI in assay [8], in assay [9] and in assay [10] was over 100 µM in each case.
With `O=C(O)c1ccc2cccnc2c1O`, the GI50 was 2.4 µM in [1]; 0.989 µM in assay [2]; 1.95 µM in assay [3]; 1.05 µM in [4]; 1.33 µM in assay [5]; 1.94 µM in assay [7]. Also, the GI50 in [9] was 2.18 µM; in assay [10] it was 2.02 µM. Further, the TGI was 24.8 µM in [1]; over 60.8 µM in assay [2]; over 56 µM in assay [3]; 29.1 µM in assay [4]; 36.2 µM in assay [5]; over 100 µM in [6]. The TGI in [7] was 36.4 µM; in assay [9], 9.9 µM; in [10], 5.29 µM.
For the compound `CC(C)=CCC/C(C)=C/[C@H]1OC(=O)CC12C[C@H](O)C=CC2=O` (some centres undefined), the GI50 is 0.727 µM in assay [1]; 0.171 µM in assay [2]; 0.308 µM in assay [4]; 0.553 µM in assay [5]; 0.384 µM in assay [6]; 1.35 µM in [8]. Further, the GI50 in assay [9] was 0.194 µM; in [10], 1.2 µM. The TGI in [1] turned out to be 1.93 µM; in assay [2], 0.521 µM; in [4], 1.04 µM; in assay [5] it was 2.47 µM; in assay [6], 1.42 µM; in assay [8] it was 3.17 µM. The TGI was found to be 0.692 µM in assay [9] and 2.82 µM in assay [10].
Take `O=c1[nH]cnc2nc(-c3ccc(N(CCCl)CCCl)cc3)[nH]c12`: the GI50 is 18.3 µM in assay [1]; over 100 µM in assay [2]; 7.13 µM in [3]; 31.7 µM in assay [4]; 13.1 µM in assay [5]; over 100 µM in [6]. For the same compound, the GI50 is 15.8 µM in [7], 3.47 µM in assay [8] and 2.85 µM in assay [9]. The TGI in assay [1] was 53.2 µM; in assay [2] it was over 100 µM; in assay [3] it was 80.6 µM; in [4], over 100 µM; in assay [5] it was over 100 µM; in [6] it was over 100 µM. The TGI in assay [7] was 50.7 µM; in assay [8] it was over 100 µM; in assay [9], over 100 µM.
With `CC1(C)N=C(N)N=C(N)N1c1ccc(OCCCCNC(=O)c2ccc(S(=O)(=O)F)cc2)c(Cl)c1`, the GI50 is 5.72 µM in assay [1]; 5.65 µM in assay [2]; 76 µM in assay [3]; over 100 µM in assay [5]; 0.743 µM in assay [6]; 8.99 µM in [7]. The results for the GI50 in assay [8], in assay [9] and in assay [10] were 5.19 µM, over 100 µM and 6.36 µM, respectively. Also, the TGI in assay [1], in assay [2], in assay [3], in assay [5], in assay [6] and in [7] was over 100 µM throughout. Also, the TGI in [8], in [9] and in [10] was over 100 µM throughout.
For the compound `O=C(Nc1ccccc1C(=O)Nc1nccs1)c1ccccc1`, the TGI in assay [1], in [2], in [3], in assay [4], in assay [5] and in assay [6] was over 100 µM in each case. In addition, the figures for the TGI in assay [8], in assay [9] and in assay [10] were 67.3 µM, 56.4 µM and over 100 µM, respectively.
For the compound `C=C1C[C@@H]2[C@H](CC[C@]3(C)C(=O)CC[C@@H]23)[C@@]2(C)C=CC(=O)C=C12`, the GI50 in assay [1] is 36.9 µM; in assay [2] it was 24.5 µM; in [3], 20.2 µM; in assay [4] it was 16.5 µM; in assay [5], 30.6 µM; in [6], 66.9 µM. In addition, the figures for the GI50 in [8] and in assay [9] were 7.5 µM and over 51.6 µM, respectively. Further, the TGI in assay [1] is over 100 µM; in assay [2], over 74.9 µM; in [3], over 60 µM; in assay [4], 44.3 µM; in assay [5], over 92 µM; in [6], over 100 µM. Further, the TGI is 33.7 µM in [8] and over 100 µM in assay [9].
As for `COc1cc(/C=C/c2cc(/C=C/c3ccc(O)c(OC)c3)[nH]c(=O)n2)ccc1O`, the GI50 in assay [1] was 2.73 µM; in assay [2], 2.1 µM; in assay [3] it was 3.48 µM; in assay [5], 16.7 µM; in [6], 3.2 µM; in [7] it was 2.24 µM. The GI50 was 3.7 µM in assay [8], 6.5 µM in assay [9] and 3.36 µM in assay [10]. Also, the TGI is 33 µM in assay [1]; 6.22 µM in assay [2]; 22.5 µM in assay [3]; over 100 µM in [5]; 18.6 µM in assay [6]; 4.93 µM in assay [7]. In addition, the TGI in [8] stood at 36.1 µM; in assay [9], 36.9 µM; in assay [10] it was 17.9 µM.
Consider `Cc1ccc(/C=C2\CN(Cc3cn(CCNc4ccnc5cc(Cl)ccc45)nn3)C/C(=C\c3ccc(C)cc3)C2=O)cc1`, for which the GI50 is 1.85 µM in [1]; 2.03 µM in [3]; 2.32 µM in assay [5]; 1.75 µM in assay [6]; 1.67 µM in [7]; 1.7 µM in assay [8]. In addition, the GI50 in assay [9] was 2.5 µM; in assay [10] it was 1.7 µM. Further, the TGI in [1] is 3.36 µM; in assay [3], 4.8 µM; in assay [5] it was 5.14 µM; in assay [6] it was 3.74 µM; in assay [7], 3.36 µM; in assay [8], 3.12 µM. The TGI amounted to 6.53 µM in assay [9] and 3.38 µM in assay [10].
As for `N#C/C(=C\c1cccnc1)c1nc2ccccc2o1`, the GI50 in assay [1], in [3], in [4], in assay [5], in assay [6] and in assay [7] was over 100 µM in each case. For the same compound, the GI50 in [8], in assay [9] and in [10] was over 100 µM in each case. In addition, the TGI in [1], in [3], in assay [4], in [5], in assay [6] and in assay [7] was over 100 µM each time. In addition, the TGI in assay [8], in [9] and in [10] was over 100 µM each time.
